Literature values as cited in patent publication US8175817B2, “Reciprocal symmetry plots as a new representation of countercurrent chromatograms” (The Board of Trustees of the University of Illinois, priority 2007, dated 2012).

Settings: octanol/water; extremes of the GUESSmix compounds found in the region of optimal resolution

Log Koctanol/water: 9.52
Compound: CC(C)CCC[C@@H](C)[C@H]1CC[C@H]2[C@@H]3CC=C4C[C@@H](O)CC[C@]4(C)[C@H]3CC[C@]12C [cholesterol]
